Experiments:
Assay type in all cases: in vivo, mouse (BALB/c)
[1] = test system: ovalbumin-sensitized and challenged mice (airway hyperresponsiveness to methacholine); assay: Airway function: change in lung resistance (RL) and dynamic compliance (Cdyn) after aerosolized methacholine, ovalbumin-sensitized and challenged mice
Procedure: (§1) Mice (8/group/experiment) were sensitized by intraperitoneal injection of 20 μg of ovalbumin (Grade V, Sigma) emulsified in 2.25 mg alum (Alum® Inject; Pierce, Rockford, Ill.) in a total volume of 100 μl on days 0 and 14. On days 28, 29 and 30, mice were challenged via the airways by a 20-minute inhalation exposure to aerosols of ovalbumin (1% in saline) obtained from a DeVilbiss ultrasonic nebulizer (particle size 1-5 μm). Age-matched, control animal groups (8/group/experiment) consisted of mice injected with alum alone (non-sensitized) and exposed either to aerosols of saline or to aerosolized ovalbumin, and mice sensitized to ovalbumin but subsequently exposed to aerosols of saline.
Briefly, mice were sensitized and challenged to ovalbumin as described in Example 1. Airway function was assessed in vivo in anesthetized, mechanically ventilated mice as previously described (see, for example, Takeda et al., 1997, J. Exp. Med. 186, 449-454) by measuring changes in lung resistance (RL) and dynamic compliance (Cdyn) in response to intratracheal challenge with aerosolized methacholine at doses of 1.56, 3.125, 6.25 and 12.5 mg/ml in saline. Baseline values were recorded from data obtained after intra-tracheal challenge with aerosolized saline. The data are presented in percent of change from baseline RL, and Cdyn.

[2] = test system: ovalbumin-sensitized and challenged mice (BAL eosinophils); assay: Bronchoalveolar lavage (BAL) differential cell counts, ovalbumin-sensitized and challenged mice; conditions: i.p. 2 h prior to each allergen challenge; CGRP 20 μg/kg, CGRP fragment 8-37 100 μg/kg (FIG. 3C)
Procedure: as §1
Following assessment of airway function, the lungs were lavaged once with 1 ml of sterile Hank's balanced salt solution (HBSS) pre-warmed at 37° C. The recovered BAL fluids were placed in Eppendorf tubes and were centrifuged at 4° C. for 5 min at 1,500 rpm. The obtained cell pellets were resuspended in 200 μl of sterile phosphate-buffered saline (PBS) and total cell numbers were determined from counting of crystal violet-stained aliquots using a hemacytometer. Differential cell counts were determined from cytospin preparations stained with Leukostat (Fisher Diagnostics, Pittsburgh, Pa.). At least 200 cells were counted from each slide in a blinded fashion.

[3] = test system: ovalbumin-sensitized and challenged mice (tissue infiltrating eosinophils); assay: Tissue infiltrating eosinophils, MBP immunoperoxidase and morphometric analysis of lung sections; conditions: i.p. 2 h prior to each allergen challenge; CGRP 20 μg/kg, CGRP fragment 8-37 100 μg/kg (FIG. 3D)
Procedure: For histology and immunohistochemistry, the lungs of the mice were inflated and fixed with 4% paraformaldehyde in PBS for 24 h at 4° C. followed by processing into paraffin. Five μm-thick sections were cut from the paraffin blocks, deparaffinized and stained with hematoxylin and eosin for routine histology.
The pan neuronal marker PGP9.5, CGRP and tissue eosinophils were detected by immunoperoxidase. Unless otherwise stated, all incubations were carried out at room temperature. All washes were performed with TBS (50 mM TRIS-buffered saline pH 7.6) 3 times for 5 min. Endogenous peroxidase was blocked by incubation of tissue sections with H2O2 (0.3% in methanol) for 30 minutes. […]
For tissue eosinophils, the sections were pretreated for 5 min with 0.01% trypsin in TBS to retrieve antigens. […] CGRP was detected with a polyclonal rabbit anti-CGRP antibody (Biogenesis) diluted 1:200. […]
The data of immunohistochemistry were quantitatively analyzed (morphometric analysis) on a G-3 Macintosh computer using the National Institutes of Health (NIH) Scion Image analysis software. […]
The number of tissue infiltrating eosinophils was determined by counting all MBP-positive cells present in the airway wall including the adventitia. When eosinophils were present in tissue areas connecting blood vessels to adjacent airways only 50% of these cells were counted for these airways. […]

## CGRP(8-37): highly selective CGRP receptor antagonist, human synthetic CGRP (fragment 8-37), from Sigma
[1]; CGRP i.p. after allergen challenge period, animals pretreated with CGRP(8-37) (FIGS. 4A, 4B)
  Inhibitory effect of CGRP on AHR after pretreatment with the receptor antagonist: totally neutralized
[1]; administration after the period of allergen challenge, CGRP i.p. at 2 h prior to assessment of airway function (FIGS. 4A, 4B)
  AHR in sensitized mice: did not alter
[1]; i.p. 2 h prior to each allergen challenge, CGRP 20 μg/kg, CGRP fragment 8-37 100 μg/kg (FIGS. 3A, 3B)
  Extent / development of AHR: did not produce any significant change
[2]
  Numbers of BAL eosinophils: no significant effect
[3]
  Numbers of tissue infiltrating eosinophils: no significant effect

Reference: patent publication US20100196376A1, “METHOD FOR REDUCING ALLERGEN-INDUCED AIRWAY HYPERRESPONSIVENESS” (National Jewish Health, priority 2001, published 2010)
